What was measured:
CDK19/CycC = CDK19/CycC (Homo sapiens, UniProt Q9BWU1); assay: LanthaScreen europium kinase binding assay (FRET displacement), CDK19; details: for CDK19 Selectivity: CDK19/CDK8 selectivity based on IC50 values; for IC50: his-tagged CDK19/CycC 5 nM, tracer 10 nM, 3 h incubation
Protocol: (§1) FRET Displacement Assay to Measure IC50: The CDK19/CDK8 IC50 values were measured to evaluate activity and to determine CDK19/CDK8 selectivity. The IC50 values of the disclosed compounds was measured using a LanthaScreen™ europium kinase binding assay (ThermoFisher), as described herein.
To a kinase buffer cocktail solution (i.e., 5× Kinase Buffer A) was added: purified recombinant his-tagged CDK19/CycC protein (5 nM), ATP-competitive kinase inhibitor scaffold kinase tracer Alexa Fluor® 665 (10 nM), biotin anti-his tag antibody (2 nM), LanthaScreen® europium-streptavidin (2 nM). An aliquot of the cocktail solution (10 μL) was added to each well of a LUMITRAC™ 200:384 flat bottom, non-treated microtiter white plate. The plate was then covered to protect light sensitive reagents and incubated for 30 min at room temperature to equilibrate before addition of any inhibitors.
(§2) A serial dilution of the compounds was titrated into each well using an automated liquid handling Staccato integrated system at the following concentration(s) (Log10 Molar [C]): −4.5, −5.0, −5.5, −6.0, −6.5, −7.0, −7.5, −8.0 so that a complete dose-response could be calculated. A Tecan microplate reader infinite m200 instrument was then used to measure the FRET signal of each individual well using an excitation of 317/20 nm, emission europium of 620/12 nm, and emission kinase tracer of 665/12 nm after a 3 h incubation period at room temperature until steady-state kinetics were achieved.
(§3) Results were performed in duplicate and were repeated a total of 3 independent times before data was normalized to the DMSO control group and IC50 values reported.

CDK8 = CDK8 (Homo sapiens, UniProt P49336); assay: LanthaScreen europium kinase binding assay (FRET displacement), CDK8
Sequence of CDK8 (P49336 whole entry): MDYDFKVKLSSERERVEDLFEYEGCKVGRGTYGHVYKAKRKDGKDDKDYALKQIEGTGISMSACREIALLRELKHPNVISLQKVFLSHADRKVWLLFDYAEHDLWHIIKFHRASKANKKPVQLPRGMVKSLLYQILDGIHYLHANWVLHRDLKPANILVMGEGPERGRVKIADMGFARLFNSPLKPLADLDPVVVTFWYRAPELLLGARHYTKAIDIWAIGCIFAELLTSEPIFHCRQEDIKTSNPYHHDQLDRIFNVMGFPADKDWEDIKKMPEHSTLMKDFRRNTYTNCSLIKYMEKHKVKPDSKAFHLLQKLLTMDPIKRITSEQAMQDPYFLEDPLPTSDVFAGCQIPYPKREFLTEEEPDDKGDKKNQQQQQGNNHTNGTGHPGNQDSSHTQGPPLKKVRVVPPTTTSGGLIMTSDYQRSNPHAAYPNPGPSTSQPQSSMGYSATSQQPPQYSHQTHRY
Sequence of CDK8 (P24863 whole entry partner): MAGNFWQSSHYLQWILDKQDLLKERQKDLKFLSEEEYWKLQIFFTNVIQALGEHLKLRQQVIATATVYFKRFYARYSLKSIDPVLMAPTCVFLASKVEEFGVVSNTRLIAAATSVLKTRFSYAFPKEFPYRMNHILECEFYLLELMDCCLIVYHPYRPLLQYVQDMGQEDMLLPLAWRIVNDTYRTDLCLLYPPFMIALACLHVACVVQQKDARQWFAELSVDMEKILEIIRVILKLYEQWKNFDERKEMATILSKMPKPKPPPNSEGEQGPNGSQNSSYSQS
Protocol: as §1
[…] An aliquot of the cocktail solution (10 μL) was added to each well of a LUMITRAC™ 200:384 flat bottom, non-treated microtiter white plate. The plate was then covered to protect light sensitive reagents and incubated for 30 min at room temperature to equilibrate before addition of any inhibitors.
as §2, §3

Sequence of CDK19/CycC (Q9BWU1 whole entry): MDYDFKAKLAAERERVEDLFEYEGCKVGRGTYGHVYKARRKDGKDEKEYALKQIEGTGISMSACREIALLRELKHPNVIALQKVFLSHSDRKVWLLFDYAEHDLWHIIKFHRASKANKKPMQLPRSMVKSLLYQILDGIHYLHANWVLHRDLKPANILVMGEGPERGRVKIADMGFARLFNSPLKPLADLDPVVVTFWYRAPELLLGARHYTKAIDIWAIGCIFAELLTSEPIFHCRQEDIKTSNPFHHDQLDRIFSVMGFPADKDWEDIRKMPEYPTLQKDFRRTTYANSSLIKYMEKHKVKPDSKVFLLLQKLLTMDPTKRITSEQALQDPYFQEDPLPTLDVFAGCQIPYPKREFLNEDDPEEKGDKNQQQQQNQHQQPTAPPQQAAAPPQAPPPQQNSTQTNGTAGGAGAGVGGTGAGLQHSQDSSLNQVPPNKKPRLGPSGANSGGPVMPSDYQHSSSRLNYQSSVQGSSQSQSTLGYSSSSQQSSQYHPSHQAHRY
Sequence of CDK19/CycC (P24863 whole entry partner): as the sequence (P24863 whole entry partner) above

| Compound | CDK19 Selectivity (CDK19/CycC) | IC50 (CDK19/CycC) | IC50 (CDK8) |
| --- | --- | --- | --- |
| CCc1cnc(C)cc1Nc1cnc(Nc2ccc(CC(C)C)cc2)nc1 [Compound A64] | 2.3 | 389 nM | 905 nM |
| Cc1cccc(-c2cnc(Nc3ccc(CC(C)C)cc3)nc2)c1 [Compound A86] | 9 | 1110 nM | 10000 nM |
| Cc1cc(-c2cnc(Nc3ccc(CC(C)C)cc3)nc2)cc(C)n1 [Compound A101, 5-(2,6-dimethylpyridin-4-yl)-N-(4-isobutylphenyl)pyrimidin-2-amine] | 4.7 | 822 nM | 3840 nM |
| CC(C)Cc1ccc(Nc2ccc(Oc3ccncc3)cn2)cc1 [Compound A83] | 1 | 5900 nM | 8300 nM |
| COc1cc(CC(C)C)ccc1Nc1ncc(Nc2ccncc2)cn1 [Compound A36] | 4.2 | 123 nM | 513 nM |
| CCc1cnccc1Nc1cnc(Nc2ccc(CC(C)C)cc2)nc1 [Compound A51] | ≥15 | ≤ 2.5 nM | 38 nM |
| c1ccc2c(Nc3cnc(Nc4ccc(CC5CC5)cc4)nc3)ccnc2c1 [Compound A43] | 6 | 6 nM | 37 nM |
| CC(C)Cc1ccc(Nc2ncc(Nc3ccncc3NC3CCCC3)cn2)cc1 [Compound A163] | 1 | 76 nM | 75 nM |
| CCOc1ccc(Nc2ncc(Nc3ccncc3C(F)(F)F)cn2)cc1 [Compound A178] | – | ≤ 2.5 nM | 10 nM |
| CC(C)Cc1ccc(Nc2ncc(-c3ccc(=O)[nH]c3)cn2)cc1 [Compound A100] | 5.1 | 283 nM | 1430 nM |
| Cc1ccc(-c2cnc(Nc3ccc(CC(C)C)cc3)nc2)cc1 [Compound A103] | 1.3 | 7680 nM | 10000 nM |
| CC(C)Cc1ccc(Nc2ncc(Nc3ccc4c(c3)CNC4=O)cn2)cc1 [Compound A153] | – | 266 nM | 605 nM |
| CC(C)Cc1ccc(Nc2ccc(Nc3ccncc3)cn2)cc1 [Compound A85] | 3.8 | 72 nM | 268 nM |
| CCCc1ccc(Nc2ncc(Nc3cc(C)nc(C)c3)cn2)cc1 [Compound A20] | – | 10000 nM | 10000 nM |
| CC(C)Cc1ccc(Nc2ncc(C3(c4ccncc4)CC3)cn2)cc1 [Compound A169] | 3 | 20 nM | 62 nM |
| CC(C)Cc1ccc(Nc2ncc(Nc3ccnc(N)c3)cn2)cc1 [Compound A159] | 3 | 18 nM | 54 nM |
| Cc1cnccc1C(=O)c1cnc(Nc2ccc(CC(C)C)cc2)nc1 [Compound A73, (2-((4-isobutylphenyl)amino)pyrimidin-5-yl) (3-methylpyridin-4-yl) methanone] | ≥6 | ≤ 2.5 nM | 16 nM |
| CC(C)Cc1ccc(Nc2ccc(C(=O)c3ccncc3)cn2)cc1 [Compound A78] | 2.6 | 5 nM | 13 nM |
| Cc1cc(Nc2cnc(Nc3ccc(CC(C)C)cc3)nc2)cc(C)n1 [Compound A9] | 4 | 2070 nM | 8260 nM |
| O=C(c1cnc(Nc2ccc(C3CCOCC3)cc2)nc1)c1ccncc1OC1CCCC1 [Compound A179] | ≤1 | ≤ 2.5 nM | ≤ 2.5 nM |
| Cc1ccc(C#N)cc1-c1cnc(Nc2ccc(CC(C)C)cc2)nc1 [Compound A93] | 2 | 132 nM | 276 nM |
| CC(C)Cc1ccc(Nc2ccc(C(=O)c3ccncc3Cl)cn2)cc1 [Compound A123] | 5 | 41 nM | 201 nM |

| Compound | CDK19 Selectivity (CDK19/CycC) | IC50 (CDK19/CycC) | IC50 (CDK8) |
| --- | --- | --- | --- |
| Cc1cnccc1Nc1cnc(Nc2ccc(C3CCC3)cc2)nc1 [Compound A147] | 1 | 13 nM | 15 nM |
| CC(C)Cc1ccc(Nc2ncc(Nc3ccnc(C4CC4)c3)cn2)cc1 [Compound A173] | 5 | 52 nM | 244 nM |
| c1cc(Nc2cnc(Nc3ccc(C4CCCC4)cc3)nc2)c(OC2CCCC2)cn1 [Compound A3] | 1.1 | 7.6 nM | 8.2 nM |
| CC(C)Cc1ccc(Nc2ncc(-c3ccccc3)cn2)cc1 [Compound A102] | 1 | 10000 nM | 10000 nM |
| COc1cc(CC(C)C)ccc1Nc1ncc(C(=O)c2ccncc2OC2CCCC2)cn1 [Compound A171] | 2 | 16 nM | 25 nM |
| CC(C)Cc1ccc(Nc2ncc(Nc3ccncc3F)cn2)cc1 [Compound A56] | ≥11 | ≤ 2.5 nM | 27 nM |
| Cc1cc(Nc2cnc(Nc3cccc(CC(C)C)c3)nc2)ccn1 [Compound A29] | 2 | 991 nM | 2030 nM |
| Cc1cc(Nc2cnc(Nc3ccc(CC4CC4)cc3)nc2)ccn1 [Compound A42] | 2 | 449 nM | 833 nM |
| CC(C)Cc1ccc(Nc2ncc(C(=O)c3ccncc3)cn2)cc1 [Compound A70] | ≥18 | ≤ 2.5 nM | 46 nM |
| CCCc1ccc(Nc2ncc(Nc3ccnc(C)c3)cn2)cc1 [Compound A10] | 3.1 | 99 nM | 310 nM |
| CC(C)Cc1cccc(Nc2ncc(Nc3ccncc3)cn2)c1 [Compound A28] | 1.7 | 1640 nM | 2730 nM |
| CC(C)Cc1ccc(Nc2ncc(C(=O)c3ccncc3)cn2)c(F)c1 [Compound A129] | 2.4 | ≤ 2.5 nM | 3.5 nM |
| c1cc(Nc2cnc(Nc3ccc(CC4CC4)cc3)nc2)ccn1 [Compound A45] | 2 | 138 nM | 214 nM |
| c1cc(Nc2cnc(Nc3ccc(C4CCCCC4)cc3)nc2)c(OC2CCCC2)cn1 [Compound A1] | 1.2 | 69 nM | 59 nM |
| c1cc(Nc2ncc(Nc3ccncc3)cn2)cc(C2CC2)c1 [Compound A26] | 1.6 | 5690 nM | 9030 nM |
| Cc1cnc(F)cc1Nc1cnc(Nc2ccc(CC(C)C)cc2)nc1 [Compound A150] | 2 | 23 nM | 50 nM |
| Cc1cc(Nc2cnc(Nc3ccc(CC(C)C)cc3)nc2)c(C)cn1 [Compound A65] | 2 | 1160 nM | 2270 nM |
| Cc1cnccc1Nc1cnc(Nc2ccc(CC(C)C)cc2C)nc1 [Compound A165] | 4 | 57 nM | 238 nM |
| CC(C)Cc1ccc(Nc2ccc(-c3ccncc3)cn2)cc1 [Compound A80] | 3 | 3330 nM | 10000 nM |
| CC(C)Cc1ccc(Nc2ncc(C(=O)c3ccncc3Cl)cn2)cc1 [Compound A118] | 1.8 | 3.7 nM | 6.6 nM |
| CC(C)Cc1ccc(Nc2ncc(Nc3ccncc3C#N)cn2)cc1 [Compound A149] | – | ≤ 2.5 nM | 3 nM |

From patent US20240351996A1, “CDK19-SELECTIVE INHIBITORS, AND METHODS OF USE THEREOF” (CZ BIOHUB SF, LLC, priority 2022, published 2024)
